“And” between values parts separate entries of the source, which are not always exact repeats. Equal entries are not always repeated. “Also recorded” adds a separate entry of the source.
Legend:
[1] = BEV serum pharmacokinetics (Phase 1 MRZ + BEV); type: in vivo, human; details: for BEV pharmacokinetic parameters: effect of co-administration: with MRZ
Description: The drugs were infused on 28-Day Cycles. Tumor response is assessed every other cycle by RANO criteria.

[2] = clinical; details: human
Description: Blood samples will be taken for peak and trough measurements, pre-dose and immediately prior to (end of infusion) EOI, on Cycle 1 Day 1. On Cycle 1 Day 15 full PK sampling will be done: pre-dose, immediately prior to EOI and then 2, 5, 15, 30, 45, 60, 90 and 120 minutes post infusion. The following PK parameters will be estimated by non-compartmental analysis:
Non-compartmental analyses will be performed. […] Blood concentrations and computed PK parameters for MRZ will be listed and summarized by cohort (mean, geometric mean, standard deviation, coefficient of variation, minimum, maximum and number of observations).
For MRZ samples will be obtained before treatment and just prior to end of infusion on Cycle 1 Day 1. On Cycle 1 Day 15, MRZ blood samples will be obtained before treatment, just prior to end of infusion, and 2, 5, 15, 30, 45, 60, 90, and 120 minutes after the infusion. Every effort should be made to collect samples at the prescribed times, but deviations up to 10% of the time point are allowed. […] After blood collection, neutralizing solution must be added.

[3] = test system: human glioblastoma (GBM) cell lines; test: Migration and matrix invasion of GBM cell lines; type: cell-based; details: either of two GBM lines
Text: In vitro studies of multiple glioma cell lines were highly sensitive to MRZ. […] Treatment with MRZ decreased matrix invasion by either of two GBM lines by approximately 90%, a highly significant effect.

[4] = test system: trypsin-like (T-L) proteasome activity; test: Proteasome inhibition in packed whole blood: T-L; type: in vivo, human; details: for compensatory hyperactivation of T-L and C-L proteasome subunits: repeated dosing
Text: (§1) The drugs were infused on 28-Day Cycles.
(§2) Change in proteasome activities in packed whole blood (PWB) lysates and peripheral blood mononuclear cell (PBMC) lysates, comparing pre-drug and post drug levels on Days 1, 8, and 15 of Cycle 1; Days 1 and 15 of each Cycle thereafter; and at the End-of Treatment Visit.
(§3) The laboratory correlates include assessment of the percentage inhibition of proteasome function (evaluated by measurement of CT-L, T-L and C-L activity in blood isolates such as whole blood and PBMC lysates.
(§4) PD analysis will include change in proteasome activities (whole blood lysates and PBMC lysates) by comparing pre-drug and post drug levels on Days 1, 8, and 15 (i.e., for each dose) of Cycle 1 and Days 1 and 15 (i.e., for the first and last doses) of each cycle thereafter.

[5] = test system: 20S Proteasome; test: 20S proteasome activity (% inhibition) in rodent brain; type: in vivo, mouse
[6] = test system: D54MG cells; test: Intracranial GBM xenograft survival; type: in vivo; details: athymic BALB/c nu/nu mice, MRZ IV twice weekly
Description: 1×10^5 D54MG cells implanted into right frontal lobes of athymic BALB/c nu/nu mice. MRZ administered IV twice weekly.

[7] = test system: proteasome; test: Proteasome activity in monkey brain; type: in vivo; details: monkey (primate)
[8] = Compassionate use of marizomib in CNS-myeloma patients: safety; type: in vivo, human
Description: This example sets forth seven case studies in which CNS-MM (i.e., multiple myeloma with CNS involvement) was treated using marizomib alone or in combination with other agents.
As set forth herein, 7 patients were treated under single patient compassionate use protocols with MRZ for CNS-myeloma. Marizomib was well-tolerated. […] One patient has been on the study for 13 months with complete resolution of both […].

[9] = target: T1, caspase-like (C-L) proteasome activity (Homo sapiens, UniProt P28072); test: Proteasome inhibition in packed whole blood: C-L; type: in vivo; details: PWB post-Marizomib infusion (peak effect)
T1 construct: Change in proteasome activities in packed whole blood (PWB) lysates and peripheral blood mononuclear cell (PBMC) lysates; from tissue; host or cells: packed whole blood lysates of dosed glioma patients
Text: as §1, §2, §3, §4

[10] = BEV 10 mg/kg IV, serum, C1D15, marizomib 0.7 mg/m^2 cohort
[11] = BEV 10 mg/kg IV, serum, C1D15, marizomib 0.8 mg/m^2 cohort
[12] = BEV 10 mg/kg IV, serum, C1D15, marizomib […]^2 cohort
[13] = BEV PK, C1D15, MRZ 0.7 mg/m^2 cohort (17 May 2016)
[14] = BEV PK, C1D15, MRZ 0.7 mg/m^2 cohort (Table 43)
[15] = BEV PK, C1D15, MRZ 0.8 mg/m^2 cohort (17 May 2016)
[16] = BEV PK, C1D15, MRZ 0.8 mg/m^2 cohort (Table 43)
[17] = across all dose cohorts, BEV 10 mg/kg with MRZ
[18] = whole blood, intravenous, 0.7 mg/m2
[19] = whole blood, intravenous, 0.8 mg/m2
[20] = tumor-bearing mouse, IV, individual mice 1 and 2
[21] = tumor-bearing mouse, IV, individual mice 1 and 2, NE = No Effect, listed as MRZ
[22] = tumor-bearing mouse, IV, individual mice 1 and 2, listed as MRZ

bevacizumab [reference compound]
Cmax D1 ([1]; BEV 10 mg/kg IV, serum, C1D1, marizomib 0.7 mg/m^2 cohort): 193 ± 8 (2) μg/mL
Cmax D1 ([1]; BEV 10 mg/kg IV, serum, C1D1, marizomib 0.8 mg/m^2 cohort): 267 ± 13.3 (3) μg/mL
Cmax D1 ([1]; BEV 10 mg/kg IV, serum, C1D1, marizomib […]^2 cohort): 275 ± 37.5 (6) μg/mL
Cmax D15 [1, 10]: 402 ± 123 (3) μg/mL
Cmin D15 [1, 10]: 81.1 ± 17.4 (2) μg/mL
Cmax D15 [1, 11]: 380 ± 56.5 (2) μg/mL
Cmin D15 [1, 11]: 85.0 ± 9.87 (3) μg/mL
Cmax D15 [1, 12]: 351 ± 46.6 (5) μg/mL
Cmin D15 [1, 12]: 89.7 ± 6.2 (6) μg/mL
Cmax D1 ([1]; BEV PK, C1D1, MRZ 0.7 mg/m^2 cohort (17 May 2016)): 282 ± 89 (3) μg/mL
Cmax D1 ([1]; BEV PK, C1D1, MRZ 0.7 mg/m^2 cohort (Table 43)): 193 ± 8 (2) μg/mL
Cmax D1 ([1]; BEV PK, C1D1, MRZ 0.8 mg/m^2 cohort (17 May 2016)): 267 ± 133 (3) μg/mL
Cmax D1 ([1]; BEV PK, C1D1, MRZ 0.8 mg/m^2 cohort (Table 43)): 267 ± 13.3 (3) μg/mL
Cmax D15 [1, 13]: 402 ± 123 (3) μg/mL
Cmin D15 [1, 13]: 114 ± 34 (3) μg/mL
Cmax D15 [1, 14]: 402 ± 123 (3) μg/mL
Cmin D15 [1, 14]: 81.1 ± 17.4 (2) μg/mL
Cmax D15 [1, 15]: 404 ± 40 (3) μg/mL
Cmin D15 [1, 15]: 85 ± 9.9 (3) μg/mL
Cmax D15 [1, 16]: 380 ± 56.5 (2) μg/mL
Cmin D15 [1, 16]: 85.0 ± 9.87 (3) μg/mL
Mean Day 15 Cmax of BEV ([1]; Study 108, BEV 10 mg/kg with MRZ): 379000 ng/mL
mean Cmax of bevacizumab on Day 1 [1, 17]: 275000 ng/mL
mean Cmax of bevacizumab on Day 1 (second value so printed) [1, 17]: 379000 ng/mL
mean Cmin of bevacizumab on Day 15 [1, 17]: 95000 ng/mL
BEV pharmacokinetic parameters: effect of co-administration [1]: not affected by co-administration
BEV pharmacokinetic parameters: effect of co-administration ([1]; listed as BEV): no effect of MRZ on BEV pharmacokinetics; also recorded: not affected by co-administration of MRZ

C[C@@]12OC(=O)[C@]1([C@@H](O)[C@@H]1C=CCCC1)NC(=O)[C@@H]2CCCl [marizomib]
Cmax ([2]; blood, iv, 0.7 mg/m2): 64.9 ± 1.73 ng/mL
Cmax ([2]; blood, iv, 0.8 mg/m2): 26.5 ± 7.92 ng/mL
Tmax [2, 18]: 11.3 min
half-life [2, 18]: 32 min
AUC(0-t) [2, 19]: 4.05 ng·h/mL
Cmax [2, 19]: 26 ± 8 ng/mL
Tmax [2, 19]: 0 min
half-life [2, 19]: 7.6 ± 0.9 min
Tmax ([2]; whole blood, intravenous, […]2): 4 min
half-life ([2]; whole blood, intravenous, […]2): 8.8 ± 0.8 min
AUC(0-t) ([2]; whole blood, iv, 0.7 mg/m2): 3.22 ng·h/mL
Tmax ([2]; whole blood, iv, 0.7 mg/m2): 21.3 min
Vd ([2]; whole blood, iv, 0.7 mg/m2): 48.3 ± 16.1 L
half-life ([2]; whole blood, iv, 0.7 mg/m2): 16 ± 8.08 min
AUC(0-t) ([2]; whole blood, iv, 0.8 mg/m2): 6.53 ng·h/mL
Tmax ([2]; whole blood, iv, 0.8 mg/m2): 8 min
half-life ([2]; whole blood, iv, 0.8 mg/m2): 7.27 ± 0.423 min
Tmax ([2]; whole blood, iv, […]2): 15.5 min
Vd ([2]; whole blood, iv, […]2): 54.4 ± 10.6 L
half-life ([2]; whole blood, iv, […]2): 8.2 ± 0.8 min
decrease of matrix invasion [3]: approximately 90%
% T-L inhibition ([4]; PWB post-MRZ infusion (peak effect), 0.7 mg/m^2 (17 May 2016)): 77.3 ± 10.5 (3) %
compensatory hyperactivation of T-L and C-L proteasome subunits [4]: overcome compensatory hyperactivation of proteasome subunits; also recorded: overcomes compensatory hyperactivation
compensatory hyperactivation of T-L and C-L proteasome subunits ([4]; listed as MRZ): overcomes compensatory hyperactivation of proteasome subunits
proteasome activity in brain ([5]; mouse): inhibits proteasome activity
CT-L activity in brain ([5]; tumor-bearing mouse): inhibits CT-L activity in brain
20S Proteasome Activity (% Inhibition), Blood, Peak (2 hr) [5, 20]: 99%
20S Proteasome Activity (% Inhibition), Blood, Trough [5, 20]: 87%
20S Proteasome Activity (% Inhibition), Brain, Peak (2 hr) [5, 21]: 94% and 98%
20S Proteasome Activity (% Inhibition), Brain, Trough [5, 21]: 52% and 41%
20S Proteasome Activity (% Inhibition), Tumor, Peak (2 hr) [5, 22]: 56% and 77%
20S Proteasome Activity (% Inhibition), Tumor, Trough [5, 22]: 15% and 0%
activity in intracranial GBM xenograft [6]: Active
proteasome activity in brain [7]: inhibition of proteasome activity; also recorded: inhibits proteasome activity
CNS adverse events ([8]; 7 CNS-MM patients): no CNS adverse events
tolerability ([8]; 7 CNS-MM patients): well-tolerated
CNS adverse events ([8]; 7 CNS-MM patients, listed as Marizomib): No CNS-adverse events
Safety ([8]; Case 1): No adverse events were reported
Safety ([8]; Case 1, listed as MRZ): MRZ was well tolerated
Safety ([8]; Case 2): No adverse events or serious adverse events were observed
Safety ([8]; Case 2, listed as MRZ): No concerning AEs
Safety ([8]; Case 3): grade 1 adverse event
Safety ([8]; Case 3, listed as MRZ): Grade 1 shortness of
Safety ([8]; Case 4): well-tolerated with no adverse events reported
Safety ([8]; Case 4, listed as MRZ): Tolerated treatment
Safety ([8]; Case 5): serious adverse event
Safety ([8]; Case 5, listed as MRZ): AE due to PD,
Safety ([8]; Case 6): grade 2 adverse event
Safety ([8]; Case 6, listed as MRZ): Overall, no safety
Safety ([8]; Case 7, listed as MRZ): No adverse events or safety concerns were noted; also recorded: No AEs or safety
inhibition at […]2 ([9]; 0.55 mg/m^2): 21 ± 7.8%
inhibition at 0.7 mg/m2 ([9]; 0.7 mg/m^2): 50.4 ± 9.1%
inhibition at 0.8 mg/m2 ([9]; 0.8 mg/m^2): 51.9 ± 8.3%

Source: patent US10894036B2, “Use of marizomib for the treatment of central nervous system (CNS) cancers” (Celgene International II Sàrl, priority 2016, dated 2021)
